Paper PMC11154717, “Evaluation of Novel Spiro-pyrrolopyridazine Derivatives as Anticancer Compounds: In Vitro Selective Cytotoxicity, Induction of Apoptosis, EGFR Inhibitory Activity, and Molecular Docking Analysis” (ACS Omega, 2024)

Columns and labels:
Assay type in all cases: cell-based, human
[1] = tested on: nontumorigenic HEK-293 cells; test: XTT cell viability assay, HEK-293
Description: (§1) Human breast cancer (MCF-7), human lung cancer (H69AR), and human prostate cancer (PC-3) human nontumorigenic HEK-293 cells were obtained from the Health Protection Agency (UK) and Interlab Cell Line Collection (ICLC, Italy). Cells were maintained in RPMI medium (Sigma) containing 10% heat-inactivated fetal bovine serum, 1% penicillin, and 1% L-glutamine in a 37° humidified CO2 incubator.
(§2) XTT (2,3-bis(2-methoxy-4-nitro-5-sulfophenyl)-2H-tetrazolium-5-carboxanilide) cell viability test was used to determine the cytotoxic activities of SPPs, which were dissolved in dimethyl sulfoxide (DMSO). Cells were seeded in 96-well plates at a density of 10^4/well and treated with increasing concentrations of SPP (1–250 μM) for 24, 48, and 72 h. After the incubation period, 100 μL of XTT was added to all experimental wells, and 96-well plates were incubated at 37 °C for 4 h. After the color change was observed, the absorbance values of the wells were recorded at 570 nm in the microplate reader (Tecan). The IC50 values for all synthesized compounds, representing the concentration needed to inhibit 50% of cancer cell proliferation, were determined using Biosoft CalcuSyn 2.1 software.[13] The following formula was used to calculate selectivity indexes (SIs), which represent the cytotoxic selectivity of SPPs against cancer cells and normal cells (HEK-293): […]

[2] = tested on: MCF-7 breast cancer cells; test: XTT cell viability assay, MCF-7; conditions: for IC50: XTT, 72 h
Description: as §1, §2

H69AR lung cancer cells = test: XTT cell viability assay, H69AR; conditions: for IC50: XTT, 72 h
Description: as §1, §2

[3] = tested on: PC-3 prostate cancer cells; test: XTT cell viability assay, PC-3; conditions: for IC50: XTT, 72 h
Description: as §1, §2

Compound	IC50 ([2]; Homo sapiens, MCF7) [µM]	IC50 (H69AR lung cancer cells; Homo sapiens, H69AR) [µM]	IC50 ([3]; Homo sapiens) [µM]	IC50 ([1]; Homo sapiens, HEK293, 72 h) [µM]	IC50 ([1]; 72 h) [µM]	IC50 [2] [µM]	IC50 (H69AR lung cancer cells) [µM]	IC50 [3] [µM]	selectivity index (SI) MCF-7 ([2]; versus HEK-293)	selectivity index (SI) H69AR (H69AR lung cancer cells; versus HEK-293)	selectivity index (SI) PC-3 ([3]; versus HEK-293)
Cc1ccc(C2=NC3(CCCCC3)c3c(-c4ccccc4)nnc(-c4ccccc4)c32)cc1 [SPP2]	24.6 ± 0.3	18.7 ± 1.4	44.2 ± 2.8	37.7 ± 0.2							
CC(C)(C)c1ccc(C2=NC3(CCCCC3)c3c(-c4ccccc4)nnc(-c4ccccc4)c32)cc1 [SPP4]	67.1 ± 0.2	92 ± 3.2	85.5 ± 1.2	55.3 ± 3.6							
Brc1cccc(-c2nnc(-c3ccccc3)c3c2C2(CCCCC2)N=C3c2ccccc2)c1 [SPP13]	66.4 ± 1.2	70.8 ± 1.3	89.7 ± 2.4	52.7 ± 1.4							
COc1ccccc1C1=NC2(CCCCC2)c2c(-c3ccccc3)nnc(-c3ccccc3)c21 [SPP5]	40.9 ± 1.8	62.7 ± 0.7	70.6 ± 2.4	45.4 ± 2							
N.N.[Cl][Pt][Cl] [cisplatin, reference compound]					16.4 ± 0.4	16.8 ± 2.4	18.2 ± 0.8	14.9 ± 4.1			
Cc1cccc(C2=NC3(CCCCC3)c3c(-c4ccc(F)cc4)nnc(-c4ccccc4)c32)c1 [SPP16]	58.3 ± 0.4	63.9 ± 2.8	76.3 ± 0.2	64.4 ± 2.3							
C#Cc1cccc(Nc2ncnc3cc(OCCOC)c(OCCOC)cc23)c1 [erlotinib, reference compound]	19.4 ± 2	21.5 ± 1.8	18.9 ± 3.2	14.7 ± 2.8							
CC(C)(C)c1ccc(C2=NC3(CCCCC3)c3c(-c4cccc(Br)c4)nnc(-c4ccccc4)c32)cc1 [SPP19]	38.4 ± 0.7	34.9 ± 2.1	61 ± 2.2	33.4 ± 1.6							
Clc1ccc(C2=NC3(CCCCC3)c3c(-c4ccccc4)nnc(-c4ccccc4)c32)cc1 [SPP6]	48.2 ± 1.4	137 ± 1.6	35.6 ± 0.4	77.8 ± 1.7							
Cc1ccc(-c2nnc(-c3ccccc3)c3c2C2(CCCCC2)N=C3c2cccc(C)c2)cc1 [SPP15]	29.7 ± 2.2	35.2 ± 3.2	2.8 ± 0.4	24.1 ± 1.8							
FC(F)(F)c1ccc(C2=NC3(CCCCC3)c3c(-c4ccccc4)nnc(-c4ccccc4)c32)cc1 [SPP8]	62.2 ± 3.5	71.9 ± 1.8	35.5 ± 0.7	38.2 ± 1.3							
Clc1ccc(C2=NC3(CCCCC3)c3c(-c4cccc(Br)c4)nnc(-c4ccccc4)c32)cc1 [SPP20]	47.6 ± 2	140 ± 2.4	24.2 ± 0.8	18.3 ± 2.1							
Clc1ccc(C2=NC3(CCCCC3)c3c(-c4ccccc4)nnc(-c4ccccc4)c32)cc1Cl [SPP7]	69.2 ± 1.2	72.2 ± 3.4	21.1 ± 2.1	55.8 ± 0.6							
CC(C)(C)c1ccc(C2=NC3(CCCCC3)c3c(-c4ccc(F)cc4)nnc(-c4ccccc4)c32)cc1 [SPP18]	65.8 ± 1.4	77.4 ± 1.7	59.6 ± 1.4	58.5 ± 1.3							

More lines, main results first:

IC50 ([2]; Homo sapiens, MCF7) [µM]	IC50 (H69AR lung cancer cells; Homo sapiens, H69AR) [µM]	IC50 ([3]; Homo sapiens) [µM]	Compound	IC50 ([1]; Homo sapiens, HEK293, 72 h) [µM]	IC50 ([1]; 72 h) [µM]	IC50 [2] [µM]	IC50 (H69AR lung cancer cells) [µM]	IC50 [3] [µM]	selectivity index (SI) MCF-7 ([2]; versus HEK-293)	selectivity index (SI) H69AR (H69AR lung cancer cells; versus HEK-293)	selectivity index (SI) PC-3 ([3]; versus HEK-293)
21.3 ± 0.4	27.1 ± 0.8	35.4 ± 1.6	c1ccc(C2=NC3(CCCCC3)c3c(-c4ccccc4)nnc(-c4ccccc4)c32)cc1 [SPP1]	16.5 ± 1.2							
12.6 ± 2.6	19.2 ± 0.4	24.2 ± 0.8	Fc1ccc(-c2nnc(-c3ccccc3)c3c2C2(CCCCC2)N=C3c2ccccc2)cc1 [SPP12]	40.8 ± 2.2							
57.4 ± 2.8	62.1 ± 1.2	89.2 ± 2.5	O=[N+]([O-])c1ccc(C2=NC3(CCCCC3)c3c(-c4ccccc4)nnc(-c4ccccc4)c32)cc1 [SPP9]	47.5 ± 2.6							
95.2 ± 2.4	75.7 ± 3.5	80.5 ± 2.3	Cc1ccc(-c2nnc(-c3ccccc3)c3c2C2(CCCCC2)N=C3c2ccccc2)cc1 [SPP11]	87.7 ± 1.6							
41.5 ± 0.8	55.3 ± 1.6	61.4 ± 0.5	Cc1ccc(-c2nnc(-c3ccccc3)c3c2C2(CCCCC2)N=C3c2ccsc2)cc1 [SPP14]	12.4 ± 0.2							
61.9 ± 2.6	63.3 ± 1.4	88.2 ± 3.5	Cc1ccc(-c2nnc(-c3ccccc3)c3c2C2(CCCCC2)N=C3c2ccc(C(C)(C)C)cc2)cc1 [SPP17]	74.6 ± 0.7							
10.4 ± 1.5	9.8 ± 0.7	8.3 ± 0.6	Cc1cccc(C2=NC3(CCCCC3)c3c(-c4ccccc4)nnc(-c4ccccc4)c32)c1 [SPP3]	7.5 ± 1					0.72	0.76	0.90
54.7 ± 2.9	21.8 ± 0.6	42.7 ± 1.6	Cc1ccc(-c2nnc(-c3ccccc3)c3c2C2(CCCCC2)N=C3c2ccc(C(F)(F)F)cc2)cc1 [SPP21]	47.1 ± 0.4							
